Values after ≈ are worked out from the molar mass of the structure shown. Like-named read-outs stand apart in the source and are kept apart here.
Experiments:
MCF-7 cells = assay: MTT assay; format: cell-based, human; details: for IC50: Homo sapiens
SKOV-3 cells = assay: MTT assay; format: cell-based, human; details: for IC50: Homo sapiens
HeLa cells = assay: MTT assay; format: cell-based, human; details: for IC50: Homo sapiens, HeLa, 24 h
[1] = tested on: quorum sensing system of C. violaceum; design: method as in doi:10.1016/j.ibiod.2018.06.003; details: cited from earlier work
C. albicans ATCC 10231 = assay: MIC determination, reference fungal strain (microdilution); format: cell-based; details: Candida albicans, ATCC10231
B. subtilis ATCC 6633 = assay: MIC determination, reference strain (microdilution); format: cell-based; details: Bacillus subtilis, ATCC6633
in vitro = details: sheep, pH 7
DPPH assay = details: DPPH radical scavenging; 40 min, room temperature
Method: The DPPH assay was performed spectrophotometrically. The amount of 30 µL of different concentrations of samples, dissolved in methanol/DMSO (9/1 v/v), was mixed with 170 µL of 0.06 mM DPPH methanolic solution and completed with methanol to a final volume of 300 µL. DPPH methanolic solution with methanol/DMSO (9/1 v/v) was used as a control. After 40 min of incubation at room temperature in the dark, the absorbance was analyzed at λ = 510 nm by a 96-well microplate reader (Epoch, BioTek System, Santa Clara, CA, USA). Ascorbic acid was used as a standard.
DPPH inhibition was calculated by the following equation:DPPH Inhibition (%) = [Acontrol − Asample)/Acontrol] × 100%
(§1) IC50 values of the samples were calculated using program GraFit v. 7.0 (Erithacus Software). The analysis was performed three times, with tree replications in each (n = 9). Statistical analysis was performed with one-way ANOVA with Tuckey’s post-hoc test.

[2] = tested on: S. epidermidis ATCC 14990; assay: MIC determination, reference strain (microdilution); format: cell-based; details: Staphylococcus epidermidis, ATCC14990
E. coli ATCC 8739 = assay: as above; format: cell-based; details: Escherichia coli, ATCC8739
ABTS assay = details: ABTS radical scavenging; 10 min, 30 °C
Method: The ABTS assay was performed spectrophotometrically. […] ABTS solution with methanol/DMSO (9/1 v/v) was used as a control. After 10 min of incubation at 30 °C in the dark, the absorbance was analyzed at λ = 750 nm by a 96-well microplate reader (Epoch, BioTek System, Santa Clara, CA, USA). Ascorbic acid was used as a standard.
ABTS inhibition was calculated by the following equation:ABTS Inhibition (%) = [Acontrol − Asample)/Acontrol] × 100%
as §1

E. faecalis ATCC 51299 = assay: MIC determination, reference strain (microdilution); format: cell-based; details: Enterococcus faecalis, ATCC51299
E. hirae ATCC 10541 = assay: as above; format: cell-based; details: Enterococcus hirae, ATCC10541
[3] = tested on: cancer cells (HeLa, SKOV-3, MCF-7); assay: MTT assay, summary statements on the cancer cells; format: cell-based; details: Homo sapiens, cell line not specified, MTT
C. diphtheriae = assay: MIC determination, reference strain (microdilution); format: cell-based; details: Corynebacterium diphtheriae
HEK-293 cells = assay: MTT assay, noncancerous cells; format: cell-based; details: Homo sapiens
S. aureus ATCC 6538 [4] = assay: MIC determination, reference strain (microdilution); format: cell-based; details: Staphylococcus aureus, ATCC6538
[5] = tested on: S. epidermidis ATCC 14990; assay: Blood bacteriostatic activity test in sheep blood; format: cell-based, Staphylococcus epidermidis; details: 24 h, 37 °C, t0 1.70 × 10^7, control t24 5.10 × 10^8
Method: (§2) The manifestation of the bactericidal properties of chemical compounds is low minimum bactericidal concentration (MBC) values, which allows many groups of researchers to check the killing rate over time (time killing tests). It is an important element in determining the strength and speed of action of a compound on bacteria. Such studies are usually carried out in bacterial media, without additional factors influencing the results.
(§3) This step was carried out on two types of bacteria, S. aureus ATCC 6538 (Figure 8 and Table 2) and S. epidermidis ATCC 14 990 (Figure 9 and Table 3).
(§4) The number of bacteria at the initial time (t0) was 1.30 × 10^8 CFU/mL for S. aureus and 1.70 × 10^7 CFU/mL for S. epidermidis. Live bacterial cells were assayed after 24 h of incubation at 37 °C. […] Bacterial controls without compounds grew unhindered and after 24 h (t24) were 2.28 × 10^9 for S. aureus and 5.10 × 10^8 CFU/mL for S. epidermidis. […] It can be assumed that the tested compounds were not related to any fraction of the blood. Attention should be paid to the S. epidermidis tests and the difference between the number of bacteria at t0 and after 24 h of incubation for each compound. The number of bacteria at t0 was 1.70 × 10^7 CFU/mL and after 24 h it decreased to, e.g., 9.40 × 10^6 CFU/mL for compounds 16e and 7.80 × 10^6 CFU/mL for compound 17c. It can be assumed that the tested compounds after being added to blood samples prevented bacteria from multiplying. However, under these conditions, the phagocytic cells take up the bacteria. […] This can be explained by much greater variety of mechanisms of action of S. aureus against phagocytic cells than of S. epidermidis. This can be integrated with the bacterial cell compounds, e.g., protein A, as well as enzymes that bacteria can secrete outside the cell, e.g., coagulase and staphylokinase. Additional studies should be conducted to check how the tested compounds affect the enzymes secreted by S. aureus.
(§5) The assay was performed as previously described by with a modification. Pure sheep blood was used for the research. Two strains of bacteria S. aureus ATCC 6538 and S. epidermidis ATCC 14990 were used with an inoculum density of approximately 10^8 CFU/mL at 0 time. The final concentration of the compounds was 0.5, 1, 2, 4, and 8 µg/mL, and the final volume of the assay tube was 1 mL. Bacterial survivors were determined on MH agar plates (CFU/mL) at 24 h after exposure.

S. aureus ATCC 6538 [6] = assay: Blood bacteriostatic activity test in sheep blood; format: cell-based, Staphylococcus aureus; details: 24 h, 37 °C, t0 1.30 × 10^8, control t24 2.28 × 10^9
Method: as §2, §3, §4, §5

[7] = MCF7, MCF-7, MTT, 24 h treatment, read-out: IC50
[8] = SK-OV-3, SKOV-3, MTT, 24 h treatment, read-out: IC50
[9] = MTT, 24 h treatment, read-out: IC50
[10] = C. albicans ATCC 10231, read-out: MIC

## CC[C@]1(O)C[C@@H]2CN(CCc3c([nH]c4ccccc34)[C@@](C(=O)OC)(c3cc4c(cc3OC)N(C)[C@H]3[C@@](O)(C(=O)OC)[C@H](OC(C)=O)[C@]5(CC)C=CCN6CC[C@]43[C@@H]65)C2)C1 [V. sulphate, Vinblastine sulphate, reference compound]
MCF-7 cells; [7]
  IC50: 0.007 ± 0.0008 µg/mL
SKOV-3 cells; [8]
  IC50: 0.008 ± 0.0003 µg/mL
HeLa cells; [9]
  IC50: 0.005 ± 0.0004 µg/mL

## C=CCOC(=O)C=Cc1ccccc1 [allyl cinnamate]
[1]; at 1 mM
  Quorum sensing inhibition: completely inhibit

## CC(=O)N1CCN(c2ccc(OCC3COC(Cn4ccnc4)(c4ccc(Cl)cc4Cl)O3)cc2)CC1 (centres unmarked) [Ketoconazole, reference compound]
C. albicans ATCC 10231; [10]
  MIC: > 125 µg/mL

## Cc1cc(S(=O)(=O)NC(=O)/C=C/c2ccc([N+](=O)[O-])cc2)c(SCc2cccc3ccccc23)cc1Cl [Compound 16f, (E)–N–{4–Chloro–5–methyl–2–[(naphthalen–1–yl)methylthio]phenylsulfonyl}–3–(4–nitrophenyl)acrylamide]
MCF-7 cells; [7]
  IC50: 93.5 ± 4.71 µg/mL (≈ 169 µM)
MCF-7 cells; IC50 HEK-293 / IC50 MCF-7
  Selectivity index (SI): 1.0
SKOV-3 cells; [8]
  IC50: 70.53 ± 0.21 µg/mL (≈ 128 µM)
SKOV-3 cells; IC50 HEK-293 / IC50 SKOV-3
  Selectivity index (SI): 1.3
B. subtilis ATCC 6633; B. subtilis ATCC 6633, Co-trimoxazole as sulfamethoxazole/trimethoprim, read-out: MIC
  MIC: 62.5 ± 0.29 µg/mL (≈ 113 µM)
In vitro; defibrinated sheep blood diluted 1:9 v/v with PBS
  hemolysis at 24 h, 31.25 µg/mL: 12 to 20%
DPPH assay
  IC50 DPPH: 310.50 ± 0.73 µg/mL (≈ 561 µM)
[2]; S. epidermidis ATCC 14990, Co-trimoxazole as sulfamethoxazole/trimethoprim, read-out: MIC
  MIC: 2 ± 0.58 µg/mL (≈ 3.62 µM)
C. albicans ATCC 10231; [10]
  MIC: > 125 µg/mL
HeLa cells; [9]
  IC50: 62.8 ± 3.75 µg/mL (≈ 114 µM)
HeLa cells; IC50 HEK-293 / IC50 HeLa
  Selectivity index (SI): 1.5
E. coli ATCC 8739; E. coli ATCC 8739, Co-trimoxazole as sulfamethoxazole/trimethoprim, read-out: MIC
  MIC: > 125 µg/mL
ABTS assay
  IC50 ABTS: 597.53 ± 1.3 µg/mL (≈ 1080 µM)
E. faecalis ATCC 51299; E. faecalis ATCC 51299, Co-trimoxazole as sulfamethoxazole/trimethoprim, read-out: MIC
  MIC: 4 ± 0.15 µg/mL (≈ 7.23 µM)
E. hirae ATCC 10541; E. hirae ATCC 10541, Co-trimoxazole as sulfamethoxazole/trimethoprim, read-out: MIC
  MIC: 4 ± 0.15 µg/mL (≈ 7.23 µM)
[3]
  IC50: > 60 µg/mL
C. diphtheriae; C. diphtheriae, Co-trimoxazole as sulfamethoxazole/trimethoprim, read-out: MIC
  MIC: 62.5 ± 0.29 µg/mL (≈ 113 µM)
HEK-293 cells; HEK293, HEK-293, MTT, 24 h treatment, read-out: IC50
  IC50: 94.5 ± 4.7 µg/mL (≈ 171 µM)
S. aureus ATCC 6538 [4]; S. aureus ATCC 6538, ± SD, Co-trimoxazole as sulfamethoxazole/trimethoprim, read-out: MIC
  MIC: 1 ± 0.29 µg/mL (≈ 1.81 µM)

## O=C(O)C=Cc1ccc([N+](=O)[O-])cc1 [4–nitrocinnamic acid]
[1]; at 5 mM
  Quorum sensing inhibition: completely inhibit

## Cc1cc(S(=O)(=O)NC(=O)C=Cc2ccccc2)c(SCc2cccc3ccccc23)cc1Cl [Compound 16a, N–[4–Chloro–5–methyl–2–(naphthalen–1–ylmethylthio)benzenesulfonyl]cinnamamide]
MCF-7 cells; MCF7, 24 h
  IC50: 14.3 ± 0.28 µg/mL (≈ 28.2 µM)
SKOV-3 cells; SK-OV-3, 24 h
  IC50: 11.8 ± 0.8 µg/mL (≈ 23.3 µM)
B. subtilis ATCC 6633
  MIC: 62.5 ± 0.29 µg/mL (≈ 123 µM)
In vitro
  hemolysis at 24 h, 125 µg/mL: 43%
DPPH assay
  IC50 DPPH: 1048.33 ± 0.48 µg/mL (≈ 2060 µM)
[2]
  MIC: 2 ± 0.58 µg/mL (≈ 3.94 µM)
C. albicans ATCC 10231
  MIC: > 125 µg/mL
HeLa cells
  IC50: 13.7 ± 1.12 µg/mL (≈ 27 µM)
E. coli ATCC 8739
  MIC: > 125 µg/mL
[5]; 1 µg/mL
  Number of viable cells of Staphylococcus epidermidis: 3.00 × 10^6 CFU/mL
[5]; 2 µg/mL
  Number of viable cells of Staphylococcus epidermidis: 4.00 × 10^6 CFU/mL
[5]; 4 µg/mL
  Number of viable cells of Staphylococcus epidermidis: 1.10 × 10^6 CFU/mL
[5]; 8 µg/mL
  Number of viable cells of Staphylococcus epidermidis: 2.50 × 10^6 CFU/mL
ABTS assay
  IC50 ABTS: 717.99 ± 1.01 µg/mL (≈ 1410 µM)
E. faecalis ATCC 51299
  MIC: 2 ± 0.58 µg/mL (≈ 3.94 µM)
E. hirae ATCC 10541
  MIC: 4 ± 0.15 µg/mL (≈ 7.87 µM)
S. aureus ATCC 6538 [6]; 1 µg/mL
  Number of viable cells of Staphylococcus aureus: 1.23 × 10^8 CFU/mL
S. aureus ATCC 6538 [6]; 2 µg/mL
  Number of viable cells of Staphylococcus aureus: 7.50 × 10^8 CFU/mL
S. aureus ATCC 6538 [6]; 4 µg/mL
  Number of viable cells of Staphylococcus aureus: 8.10 × 10^8 CFU/mL
S. aureus ATCC 6538 [6]; 8 µg/mL
  Number of viable cells of Staphylococcus aureus: 1.29 × 10^8 CFU/mL
C. diphtheriae
  MIC: 62.5 ± 0.29 µg/mL (≈ 123 µM)
HEK-293 cells; HEK293, 24 h
  IC50: 13.6 ± 0.19 µg/mL (≈ 26.7 µM)
S. aureus ATCC 6538 [4]
  MIC: 1 ± 0.29 µg/mL (≈ 1.97 µM)

## O=C1O[C@H]([C@@H](O)CO)C(O)=C1O [Ascorbic acid, ascorbic acid, reference compound]
DPPH assay
  IC50 DPPH: 10.78 ± 0.11 µg/mL (≈ 61.2 µM)
ABTS assay
  IC50 ABTS: 18.99 ± 0.03 µg/mL (≈ 108 µM)

## O=C(O)/C=C/c1ccccc1 [cinnamic acid]
[1]; at 5 mM
  Quorum sensing inhibition: completely inhibit

## O=C(O)C=Cc1ccc(Cl)cc1 [4–chlorocinnamic acid]
[1]; at 5 mM
  Quorum sensing inhibition: completely inhibit

## O=C(O)C=Cc1ccc2c(c1)OCO2 [3,4–(methylenedioxy)cinnamic acid]
[1]; at 5 mM
  Quorum sensing inhibition: completely inhibit

## OCC=Cc1ccccc1 [cinnamyl alcohol]
[1]; at 1 mM
  Quorum sensing inhibition: completely inhibit

## NC(=O)C=Cc1ccccc1 [cinnamamide]
[1]; at 5 mM
  Quorum sensing inhibition: completely inhibit

## CC(=Cc1ccccc1)C(=O)O [α–methylcinnamic acid]
[1]; at 5 mM
  Quorum sensing inhibition: completely inhibit

Reference: publication PMC10096175, “An In Vitro Antimicrobial, Anticancer and Antioxidant Activity of N–[(2–Arylmethylthio)phenylsulfonyl]cinnamamide Derivatives” (Molecules, 2023)
